# According to PMC10899790, “A bromodomain-independent mechanism of gene regulation by the BET inhibitor JQ1: direct activation of nuclear receptor PXR” (Nucleic Acids Research, 2023):
# Entries after “also recorded” stand apart in the source; their conditions may differ.
# How the values were obtained:
# [1] = test system: CMV promoter; test: CMV-Renilla luciferase reporter; format: cell-based, human; settings: HepG2, 24 h; fold change relative to DMSO
# Experimental: (§1) HepG2 cells (7.5 × 10^5/well) were plated in six-well tissue culture-treated plates. The following day, cells were co-transfected with pGL3-CYP3A4-luc (2 μg/well), pRL-CMV (200 ng/well) and 100 ng/well of either empty vector (pcDNA3), pcDNA3-FLAG-PXR, pCMV6-mPXR or pGL4.53-PGK-PXR using Lipofectamine 3000 (Thermo Fisher Scientific). Twenty-four hours after transfection, cells were trypsinized and suspended in phenol red-free DMEM (Thermo Fisher Scientific) supplemented with 5% charcoal/dextran-treated FBS (HyClone), and 1 × 10^4 cells/well in 25 μl media were added to white 384-well plates. […] After 24 h, the Dual-Glo Luciferase Assay System (Promega) and EnVision microplate reader (PerkinElmer) were used to measure firefly and Renilla luciferase activities. CMV-driven Renilla luciferase was used as an indicator of general transcriptional modulation by the test compounds and is plotted as fold change (FC) relative to DMSO controls. Assays utilizing pGL4.54[luc2/TK], pGL4.53[luc2/PGK], or pGL4.13[luc2/SV40] were similarly performed and normalized.
# [2] = molecular target: T1, PXR LBD (Homo sapiens, UniProt O75469); test: TR-FRET PXR LBD SRC-1 recruitment assay; format: biochemical; settings: percent relative to 10 μM T0901317 and DMSO
# T1 construct: GST-PXR LBD protein (cat. # PV4841) were purchased from Thermo Fisher Scientific; purchased Thermo Fisher Scientific PV4841
# T1 sequence (O75469 146-433 limits assumed): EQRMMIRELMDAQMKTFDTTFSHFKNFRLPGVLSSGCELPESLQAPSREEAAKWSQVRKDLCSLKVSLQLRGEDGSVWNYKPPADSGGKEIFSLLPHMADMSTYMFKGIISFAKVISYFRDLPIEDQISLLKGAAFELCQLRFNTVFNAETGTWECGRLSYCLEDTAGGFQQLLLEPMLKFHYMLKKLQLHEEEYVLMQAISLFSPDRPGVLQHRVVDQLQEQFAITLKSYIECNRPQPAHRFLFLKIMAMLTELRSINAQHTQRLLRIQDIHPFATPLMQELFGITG
# Experimental: The TR-FRET PXR LBD SRC-1 recruitment assay measures PXR LBD interaction with a fluorescently labeled SRC-1 peptide (Supplementary Figure S1) and was performed as previously described with minor modifications ([23]). […] FAM-SRC-1 peptide solution (15 μl/well, 133.3 nM in assay buffer) was dispensed into 384-well black low-volume assay plates. An Echo 650 Acoustic Liquid Handler then dispensed 60 nl/well of compound stocks or DMSO. […] The plates were shaken at 900 rpm (80 × g) on an IKA MTS 2/4 digital microtiter shaker for 1 min then centrifuged at 1000 rpm (201 × g) for 30 s in an Eppendorf 5810 centrifuge equipped with an A-4-62 swing-bucket rotor. The plates were protected from light exposure and incubated for 1 h at room temperature (RT). After incubation, the TR-FRET signal from each well was collected with a PHERAstar FS Microplate Reader (BMG Labtech). The measured relative fluorescence units (RFU) were normalized for each well using equation (2),
# [3] = molecular target: T1, PXR LBD; test: TR-FRET PXR LBD ligand binding assay; settings: TR-FRET competition with BODIPY FL vindoline
# Experimental: The TR-FRET PXR LBD ligand binding assay measures binding of PXR ligands by competition with a fluorescently labeled ligand (BODIPY FL vindoline) (Supplementary Figure S3) and was performed as previously described with minor modifications ([24]). […] BODIPY FL vindoline (15 μl/well, 133.3 nM in assay buffer) was dispensed into 384-well low-volume black assay plates. An Echo 650 Acoustic Liquid Handler then dispensed 60 nl/well of compound stocks or DMSO.
# [4] = LC–MS/MS test of JQ1 stability in crystallization solution; format: physicochemical; settings: 1 μM JQ1, crystallization solution pH 7.4, 20°C
# Experimental: An Echo 650 Acoustic Liquid Handler was used to dispense 50 nl/well of 1 mM JQ1 into 96-well assay plates (Corning Inc., one plate per time point, six replicate wells per time point). Crystallization solution (50 μl) was added to each well to yield final concentrations of 1 μM JQ1 and 0.1% DMSO. […] This composition matched the final composition of a crystallization drop containing a 1:1 ratio of protein to reservoir solution. To the 0-day plate, 100 μl cold acetonitrile (ACN) containing 400 ng/ml warfarin (Fluka Chemical Corporation) as the internal standard was immediately added to each well. The remaining plates were incubated at 20°C for 1–8 days followed by quenching with 100 μl cold ACN containing 400 ng/ml warfarin. Quenched samples were sealed and stored at -20°C until analysis. On the day of analysis, plates were thawed, shaken at 600 rpm for 10 min, and centrifuged at 2000 × g for 10 min. The supernatants (20 μl) were transferred to a new analytical 96-well plate (Corning Inc.) and diluted with 180 μl 50% ACN in Milli-Q water. Chromatographic separation was performed on an ACQUITY UPLC BEH C18 column (1.7 μm, 2.1 mm × 50 mm) (Waters Corporation) using the Triple Quad 6500 System (AB Sciex). The injection volume was 7 μl. […] Data were acquired using Analyst Software (AB Sciex, version 1.6.3) and analyzed using MultiQuant Software (AB Sciex, version 3.0.3).
# [5] = test system: PGK promoter; test: PGK promoter firefly luciferase reporter; format: cell-based, human; settings: HepG2, 24 h
# Experimental: as §1
# [6] = test system: CYP3A4; test: RNA induction in HepaRG: CYP3A4 mRNA (RT-qPCR); settings: differentiated HepaRG, 24 h
# Experimental: Experiments with HepaRG cells were conducted similarly to previously described ([45]), with modifications. HepaRG cells were seeded in collagen-coated 24-well plates at 5 × 10^5 cells/well in HCM. Cells were differentiated for two weeks with HCM containing 2% DMSO. The cells were then treated with the respective chemicals for 24 h in HCM. The final DMSO concentration for the treatment was 0.5%. Total RNA was isolated from cells with Maxwell 16 LEV SimplyRNA Tissue Kits (Promega), and cDNA was generated from 250 ng of RNA with the SuperScript VILO cDNA Synthesis Kit (Thermo Fisher Scientific). Quantitative real-time polymerase chain reaction (RT-qPCR) was conducted with 2 μl of cDNA using TaqMan Fast Advanced Master Mix (Applied Biosystems) in an Applied Biosystems 7500 Fast Real-Time PCR System. TaqMan gene expression assays specific for CYP3A4 (Hs00604506_m1), PXR (Hs01114267_m1), MYC (Hs00153408_m1) and RNA18S (Hs03928990_g1) were purchased from Thermo Fisher Scientific. Fold induction values were calculated according to the 2^−ΔΔCt method, where ΔCt represents the differences in cycle threshold numbers between the target gene and reference gene and ΔΔCt represents the relative change in these differences between the control and treatment groups ([46]). RNA18S was used as the reference gene for relative quantification of all other genes.
compound,measurement,setting,value
"Cc1sc2c(c1C)C(c1ccc(Cl)cc1)=N[C@@H](CC(=O)OC(C)(C)C)c1nnc(C)n1-2 [JQ1, (+)-JQ1]",CMV-Renilla luciferase reporter expression,[1],robustly activated Renilla luciferase expression from a CMV promoter
same,recruitment of SRC-1 peptide to purified PXR LBD,[2],induced SRC-1 recruitment; also recorded: JQ1 > birabresib > CPI-203
same,binding to purified PXR LBD (binding potency),[3],comparable to rifampicin in binding potencies; also recorded: JQ1 > birabresib > CPI-203
same,stability in the crystal growth condition,[4],does not degrade over a period of eight days
same,PGK promoter-driven luciferase expression,[5],not positively modulated
same,endogenous CYP3A4 mRNA expression,[6]; FC relative to DMSO,modestly induced CYP3A4 mRNA
same,endogenous CYP3A4 mRNA expression on co-treatment with SPA70,[6]; co-treated with SPA70,largely diminished
